# Measurements as given in PubChem BioAssay (NCI).
# Values joined by “and” are separate entries in the source; they are usually repeats but may differ in a detail not shown here. Identical values can stand only once.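 Method: 48-hour compound exposure of cells in 96-well plates, five concentrations, linear interpolation of endpoints. GI50 is the concentration that inhibits growth by half. TGI denotes the concentration required for complete inhibition of growth.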
# Assays:
# Assay in all cases: NCI-60 cell line screen, 48 h
# [1] = tested on: SF-268 CNS
# [2] = tested on: SF-539 CNS
# [3] = tested on: EKVX NSCLC
# [4] = tested on: DU-145 prostate
# [5] = tested on: TK-10 renal
# [6] = tested on: NCI-H522 lung
# [7] = tested on: MDA-MB-435
# [8] = tested on: HCT-15 colon
# [9] = tested on: UACC-62 melanoma
# [10] = tested on: CAKI-1 renal
Compound,GI50 [1] [µM],TGI [1] [µM],GI50 [2] [µM],TGI [2] [µM],GI50 [3] [µM],TGI [3] [µM],GI50 [4] [µM],TGI [4] [µM],GI50 [5] [µM],TGI [5] [µM],GI50 [6] [µM],TGI [6],GI50 [7] [µM],TGI [7] [µM],GI50 [8] [µM],TGI [8] [µM],GI50 [9],TGI [9] [µM],GI50 [10] [µM],TGI [10] [µM]
CN1C(=O)[C@@H](CC2CCCC2)N(C2CCCC2)c2nc(Nc3cc(Cl)c(O)c(Cl)c3)ncc21,33,> 100,19.8,> 100,22.4,> 100,27.6,> 100,27.2,> 100,10.8,> 100 µM,27.8,> 100,14.6,56.2,11.1 µM,27.4,23.1,> 100
CN(C)C/C=C/C(=O)Nc1ccc(C(=O)Nc2cccc(Nc3ncc(Cl)c(-c4c[nH]c5ccccc45)n3)c2)cc1,,,0.0199,0.0575,0.03,0.283,0.0307,0.81,0.0602,1.34,0.0172,0.094 µM,0.0352,0.274,0.229,> 100,0.043 µM,0.259,0.0607,0.686
CC(=O)NC(CCc1ccc(Cl)c(Cl)c1)c1cccc(O)c(=O)c1 (centres undefined),0.517,14.7,0.514,5.35,,,1.18,> 49.2,0.864,> 100,0.488,11.9 µM,1.07,18.9,0.131,19.6,0.619 µM,1.98,0.195,11.9
COc1cc(C(=O)/C=C/c2cccnc2Nc2ccc(Cl)cc2)cc(OC)c1OC,1.72,3.19,1.71,3.11,1.61,3.16,1.63,2.98,1.87,3.35,1.46,3 µM,1.49,3.36,1.49,3.48,1.54 µM,2.98,1.75,4.04
CCN(CC)CCN1C(=O)c2c(c3c4cccc(Cl)c4n(C4OC(CO)C(OC)C(O)C4O)c3c3[nH]c4c(Cl)cccc4c23)C1=O (centres undefined),< 0.0001,,,,,,,0.0845,,,< 0.01,0.21 µM and 0.146 µM,,0.217,,,0.000111 µM and < 0.0264 µM and < 0.01 µM,,,
CCN(CC)Cc1cc(Nc2ccnc3ccc(OC)cc23)ccc1O,3.61,19.8,2.17,4.84,5.16,38.8,3.93,16.8,3.1,8.43,2.21,5.61 µM,3.08,12.3,3.56,34,5.78 µM,20.9,1.48,4.1
N#Cc1c(-c2ccccc2)nc(SCC(O)CN2CCOCC2)nc1N1CCOCC1 (centres undefined),17.8,> 100,,,7.52,> 100,24.5,> 100,10.9,> 100,18.3,> 100 µM,19.6,> 100,9.16,> 100,3.55 µM,> 100,1.67,
N#Cc1ncc(-c2ccc(C(F)(F)F)cc2)c(NC2CCCCCC2)n1,27.7,> 100,> 100,> 100,,,44.8,> 100,91,> 100,6.02,> 100 µM,29.1,> 100,8.53,> 100,24.5 µM,> 100,18.3,> 100
CCN1C[C@@H](C)n2c(c(O)c3c(=O)n(Cc4ccc(F)c(Cl)c4)nc(C(=O)NC)c32)C1=O,3.4,39.8,2.32,5.37,,,3.57,13.8,2.95,12.6,2.95,9.47 µM,3.21,> 100,2.57,8.28,,,3.03,16.6
O=C(CC(O)(C(F)(F)F)C(F)(F)F)c1cccs1,,> 10,,> 10,,,,> 10,,> 10,,> 10 µM,,> 10,,> 10,,> 10,,> 10
Cc1cc2c3c(nc4ccccc42)C(=O)c2cccnc2-c3n1,0.786,> 19.9,0.495,2.21,0.707,2.49,0.3,1.48,,,0.04,0.315 µM,0.162,0.332,0.015,0.162,0.284 µM,0.936,0.404,2.67
CC(C)(Oc1cccc(N2CCC[C@@H](C(=O)N(Cc3ccc(-c4cn[nH]c4)cc3)C3CC3)C2)c1)C(=O)N1CCNCC1,10.7,24.7,11.4,24.2,13.7,27.9,14.5,28,14.8,28.4,12.3,26 µM,13.8,27.2,14.6,28.9,,,8.11,21.9
CCCCNC(=O)CC1=C(C)/C(=C/c2[nH]c(-c3ccc[nH]3)cc2OC)N=C1C,2.66,15,2.75,9.31,2.29,15.5,4,16.6,2.83,8.8,1.8,4.89 µM,2.87,9.71,1.88,4.12,,,2.56,9.3
O=C1NC(=NCCc2ccccc2F)S/C1=C\c1ccc2ncccc2c1,7.76,> 25,5.18,> 25,,,8.81,> 25,5.13,> 25,4.74,16.9 µM,1.57,> 16.8,1.84,> 25,7.1 µM,> 25,5.29,> 19.7
